Key:
Format in all cases: cell-based
MOLT-4 = experiment: Cytotoxicity against human MOLT4 cells assessed as effect on cell growth at 10 uM incubated for 48 hrs by sulforhodamine B assay; settings: molt-4, 48 h
EKVX = experiment: Cytotoxicity against human EKVX cells assessed as effect on cell growth at 10 uM incubated for 48 hrs by sulforhodamine B assay
K562 = experiment: Cytotoxicity against human K562 cells assessed as effect on cell growth at 10 uM incubated for 48 hrs by sulforhodamine B assay; settings: k562, 48 h
HOP-62 = experiment: Cytotoxicity against human HOP62 cells assessed as effect on cell growth at 10 uM incubated for 48 hrs by sulforhodamine B assay; settings: hop-62, 48 h
NCI-H522 = experiment: Cytotoxicity against human NCI-H522 cells assessed as effect on cell growth at 10 uM incubated for 48 hrs by sulforhodamine B assay; settings: nci-h522, 48 h
HCT-15 = experiment: Cytotoxicity against human HCT15 cells assessed as effect on cell growth at 10 uM incubated for 48 hrs by sulforhodamine B assay; settings: hct-15, 48 h
SNB-19 = experiment: Cytotoxicity against human SNB19 cells assessed as effect on cell growth at 10 uM incubated for 48 hrs by sulforhodamine B assay; settings: snb-19, 48 h
M14 = experiment: Cytotoxicity against human M14 cells assessed as effect on cell growth at 10 uM incubated for 48 hrs by sulforhodamine B assay; settings: m14, 48 h
MDA-MB-435 = experiment: Cytotoxicity against human MDA-MB-435 cells assessed as effect on cell growth at 10 uM incubated for 48 hrs by sulforhodamine B assay; settings: mda-mb-435, 48 h
SK-MEL-2 = experiment: Cytotoxicity against human SK-MEL-2 cells assessed as effect on cell growth at 10 uM incubated for 48 hrs by sulforhodamine B assay; settings: sk-mel-2, 48 h
SK-MEL-5 = experiment: Cytotoxicity against human SK-MEL-5 cells assessed as effect on cell growth at 10 uM incubated for 48 hrs by sulforhodamine B assay; settings: sk-mel-5, 48 h
UACC-62 = experiment: Cytotoxicity against human UACC62 cells assessed as effect on cell growth at 10 uM incubated for 48 hrs by sulforhodamine B assay; settings: uacc-62, 48 h
SK-OV-3 = experiment: Cytotoxicity against human SKOV3 cells assessed as effect on cell growth at 10 uM incubated for 48 hrs by sulforhodamine B assay; settings: sk-ov-3, 48 h
CAKI-1 = experiment: Growth inhibition of human Caki1 cells assessed as growth percentage at 10 uM incubated for 48 hrs by sulforhodamine B assay; settings: caki-1, 48 h
RXF 393 = experiment: Cytotoxicity against human RXF393 cells assessed as effect on cell growth at 10 uM incubated for 48 hrs by sulforhodamine B assay; settings: rxf 393, 48 h
TK-10 = experiment: Cytotoxicity against human TK10 cells assessed as effect on cell growth at 10 uM incubated for 48 hrs by sulforhodamine B assay; settings: tk-10, 48 h
UO-31 = experiment: Cytotoxicity against human UO31 cells assessed as effect on cell growth at 10 uM incubated for 48 hrs by sulforhodamine B assay; settings: uo-31, 48 h
DU-145 = experiment: Cytotoxicity against human DU145 cells assessed as effect on cell growth at 10 uM incubated for 48 hrs by sulforhodamine B assay; settings: du-145, 48 h
MCF7 = experiment: Cytotoxicity against human MCF7 cells assessed as effect on cell growth at 10 uM incubated for 48 hrs by sulforhodamine B assay; settings: mcf7, 48 h
Hs-578T = experiment: Cytotoxicity against human Hs 578T cells assessed as effect on cell growth at 10 uM incubated for 48 hrs by sulforhodamine B assay

Measured: Activity

N#Cc1ccc(N2C(=O)CC[C@H]2C(=O)NCc2ccc(Cl)cc2Cl)cc1
Non-Toxic: all assays above

CN(Cc1ccccc1)C(=O)[C@@H]1CCC(=O)N1Cc1ccc(Cl)cc1Cl
Non-Toxic: all assays above

CCCCCCN1C(=O)[C@@H]2CCC(=O)N2C1N(C)C (stereo not given in full)
Non-Toxic: all assays above

O=C(NCCc1ccccc1)[C@@H]1CCC(=O)N1Cc1ccc(Br)cc1
Non-Toxic: all assays above

O=C(NCc1ccc(Cl)cc1Cl)[C@@H]1CCC(=O)N1Cc1ccccc1
Non-Toxic: all assays above

O=C(NCCc1ccc(Cl)cc1Cl)[C@@H]1CCC(=O)N1c1ccccc1
Non-Toxic: all assays above

O=C(NCc1ccc(Cl)cc1Cl)[C@@H]1CCC(=O)N1c1cncs1
Non-Toxic: all assays above

COc1cc(CN/C=C2\C[C@@H](C(=O)NCc3ccc(Cl)cc3Cl)NC2=O)cc(OC)c1OC
Non-Toxic: all assays above

CN(C)C(=O)[C@@H]1CCC(=O)N1
Non-Toxic: all assays above

From ChEMBL document CHEMBL4627246, “Pyroglutamide-Based P2X7 Receptor Antagonists Targeting Inflammatory Bowel Disease” (J Med Chem, 2020)
